# Reference: the supplement of paper PMC10307832
# Columns and labels:
# Assay in all cases: relative viability (nuclei count vs DMSO), 5 days (fraction); higher = more cells survive
# [1] = compound: Nc1ccn([C@@H]2O[C@H](CO)[C@@H](O)C2(F)F)c(=O)n1 [Gemcitabine]
# In short: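 Lung cancer cell lines were seeded into 1536-well plates, kept overnight at 37 °C and pinned with five library-drug doses (not always all listed) spaced by √10. After 5 days, nuclei were Hoechst-stained, imaged at 4× and counted with MetaXpress. Viability is treated-well nuclei over vehicle-well nuclei, taken as a median across plates. Plates needed control CV below 25% and at least one doubling.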
# [2] = compound: Nc1ccn([C@@H]2O[C@H](CO)[C@@H](O)C2(F)F)c(=O)n1 [Gemcitabine] + CC1(C)CCC(c2ccc(Cl)cc2)=C(CN2CCN(c3ccc(C(=O)NS(=O)(=O)c4ccc(N[C@H](CCN5CCOCC5)CSc5ccccc5)c(S(=O)(=O)C(F)(F)F)c4)cc3)CC2)C1 [Navitoclax] (partner 0.5 µM)
# In short: (§1)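 Lung cancer cell lines in 1536-well plates were dosed by pin tool the day after seeding, either with one drug alone or with a fixed anchor-drug dose plus five library-drug doses (not always all listed) in √10 steps. After 5 days, cells were fixed and their nuclei stained in one step (final 0.05% Triton X-100, 1% formaldehyde, 1 ug/ml Hoechst), then counted on 4× images. Relative viability is the nuclei count in treated wells divided by that in vehicle wells. Values are medians of duplicate plates.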
# [3] = compound: Nc1ccn([C@@H]2O[C@H](CO)[C@@H](O)C2(F)F)c(=O)n1 [Gemcitabine] + COc1cc2c(Oc3ccc(NC(=O)C4(C(=O)Nc5ccc(F)cc5)CC4)cc3F)ccnc2cc1OCCCN1CCOCC1 [Foretinib] (partner 0.25 µM)
# In short: as §1
# [4] = compound: Nc1ccn([C@@H]2O[C@H](CO)[C@@H](O)C2(F)F)c(=O)n1 [Gemcitabine] + CS(=O)(=O)CCNCc1ccc(-c2ccc3ncnc(Nc4ccc(OCc5cccc(F)c5)c(Cl)c4)c3c2)o1 [Lapatinib] (partner 2 µM)
# In short: as §1
# [5] = compound: Nc1ccn([C@@H]2O[C@H](CO)[C@@H](O)C2(F)F)c(=O)n1 [Gemcitabine] + CS(=O)(=O)N1CCN(Cc2cc3nc(-c4cccc5[nH]ncc45)nc(N4CCOCC4)c3s2)CC1 [Pictilisib] (partner 1 µM)
# In short: as §1
# [6] = compound: Nc1ccn([C@@H]2O[C@H](CO)[C@@H](O)C2(F)F)c(=O)n1 [Gemcitabine] + C[C@@H](Oc1cc(-c2cnn(C3CCNCC3)c2)cnc1N)c1c(Cl)ccc(F)c1Cl [Crizotinib] (partner 1 µM)
# In short: as §1
# [7] = compound: Nc1ccn([C@@H]2O[C@H](CO)[C@@H](O)C2(F)F)c(=O)n1 [Gemcitabine] + C[C@]1(O)C[C@@H](c2nc(-c3ccc4ccc(-c5ccccc5)nc4c3)c3c(N)nccn32)C1 [Linsitinib] (partner 1 µM)
# In short: as §1
# [8] = compound: Nc1ccn([C@@H]2O[C@H](CO)[C@@H](O)C2(F)F)c(=O)n1 [Gemcitabine] + Cc1nc(NC(=O)N2CCC[C@H]2C(N)=O)sc1-c1ccnc(C(C)(C)C(F)(F)F)c1 [Alpelisib] (partner 2 µM)
# In short: as §1
# [9] = compound: Nc1ccn([C@@H]2O[C@H](CO)[C@@H](O)C2(F)F)c(=O)n1 [Gemcitabine] + N=C(N)NC(=N)NCCc1ccccc1 [Phenformin] (partner 250 µM)
# In short: as §1
# [10] = compound: Nc1ccn([C@@H]2O[C@H](CO)[C@@H](O)C2(F)F)c(=O)n1 [Gemcitabine] + Nc1ncn([C@H]2C[C@H](O)[C@@H](CO)O2)c(=O)n1 [Decitabine] (partner 2 µM)
# In short: as §1
# [11] = compound: Nc1ccn([C@@H]2O[C@H](CO)[C@@H](O)C2(F)F)c(=O)n1 [Gemcitabine] + O=C(c1cc(Cc2n[nH]c(=O)c3ccccc23)ccc1F)N1CCN(C(=O)C2CC2)CC1 [Olaparib] (partner 8 µM)
# In short: as §1
cell line,measurement,setting,value
A549,relative viability,[1]; 0.001 µM,1.03
same,relative viability,[1]; 0.003162 µM,0.894
same,relative viability,[1]; 0.01 µM,0.0734
same,relative viability,[1]; 0.03162 µM,0.0244
same,relative viability,[1]; 0.1 µM,0.0209
same,relative viability,[2]; first compound 0.001 µM,1.21
same,relative viability,[2]; first compound 0.003162 µM,1.1
same,relative viability,[2]; first compound 0.01 µM,0.0375
same,relative viability,[2]; first compound 0.03162 µM,0.0126
same,relative viability,[2]; first compound 0.1 µM,0.0108
same,relative viability,[3]; first compound 0.001 µM,0.998
same,relative viability,[3]; first compound 0.003162 µM,0.901
same,relative viability,[3]; first compound 0.01 µM,0.616
same,relative viability,[3]; first compound 0.03162 µM,0.0177
same,relative viability,[3]; first compound 0.1 µM,0.0104
same,relative viability,[4]; first compound 0.001 µM,0.967
same,relative viability,[4]; first compound 0.003162 µM,0.747
same,relative viability,[4]; first compound 0.01 µM,0.249
same,relative viability,[4]; first compound 0.03162 µM,0.0488
same,relative viability,[4]; first compound 0.1 µM,0.033
same,relative viability,[5]; first compound 0.001 µM,0.74
same,relative viability,[5]; first compound 0.003162 µM,0.367
same,relative viability,[5]; first compound 0.01 µM,0.0384
same,relative viability,[5]; first compound 0.03162 µM,0.0238
same,relative viability,[5]; first compound 0.1 µM,0.0155
same,relative viability,[6]; first compound 0.001 µM,0.858
same,relative viability,[6]; first compound 0.003162 µM,0.377
same,relative viability,[6]; first compound 0.01 µM,0.229
same,relative viability,[6]; first compound 0.03162 µM,0.0341
same,relative viability,[6]; first compound 0.1 µM,0.0206
same,relative viability,[7]; first compound 0.001 µM,0.705
same,relative viability,[7]; first compound 0.003162 µM,0.356
same,relative viability,[7]; first compound 0.01 µM,0.0342
same,relative viability,[7]; first compound 0.03162 µM,0.0143
same,relative viability,[7]; first compound 0.1 µM,0.0157
same,relative viability,[8]; first compound 0.001 µM,0.919
same,relative viability,[8]; first compound 0.003162 µM,0.276
same,relative viability,[8]; first compound 0.01 µM,0.0341
same,relative viability,[8]; first compound 0.03162 µM,0.0189
same,relative viability,[8]; first compound 0.1 µM,0.0253
same,relative viability,[9]; first compound 0.001 µM,0.158
same,relative viability,[9]; first compound 0.003162 µM,0.0726
same,relative viability,[9]; first compound 0.01 µM,0.0184
same,relative viability,[9]; first compound 0.03162 µM,0.0201
same,relative viability,[9]; first compound 0.1 µM,0.0216
same,relative viability,[10]; first compound 0.001 µM,0.292
same,relative viability,[10]; first compound 0.003162 µM,0.274
same,relative viability,[10]; first compound 0.01 µM,0.0559
same,relative viability,[10]; first compound 0.03162 µM,0.0266
same,relative viability,[10]; first compound 0.1 µM,0.0227
same,relative viability,[11]; first compound 0.001 µM,0.296
same,relative viability,[11]; first compound 0.003162 µM,0.279
same,relative viability,[11]; first compound 0.01 µM,0.0098
same,relative viability,[11]; first compound 0.03162 µM,0.0228
same,relative viability,[11]; first compound 0.1 µM,0.014
